From patent publication US20250057823A1, “COMPOSITION FOR IMPROVING CARDIAC FUNCTION” (Kyoto University, priority 2021, published 2025)
Counter-ions that a name gives are not always drawn.

What was measured:
[1] = test system: beagle dog models of heart failure; experiment: Beagle dog models of rapid ventricular pacing-induced heart failure; assay type: in vivo
Experimental: After induction of general anesthesia with thiopental sodium (20 mg/kg, i.v.: 0.5 g of Labonal injection, Nipro ES Pharma Corporation) in 10- to 12-month-old male beagle dogs (9.80-11.50 kg), a tracheal cannula was inserted into the airway, and artificial respiration was performed with an Acoma veterinary ventilator (PRO-45Va, Acoma Medical Corporation). Anesthesia was maintained by inhalation of a gas mixture (Air:O2=3:0.2) and 1.0 to 2.5% isoflurane (isoflurane inhalation solution “Pfizer”, Mylan Seiyaku Co., Ltd.) using an Acoma animal anesthesia machine (NS-5000A, Acoma Medical Industry Co., Ltd.) to maintain a constant depth of anesthesia. An incision was made in the right side of the neck of the animal, an animal internal cardiac pacemaker (SIP-501, Star Medical Corporation) was implanted subcutaneously, a retractable screw-in reed (Tendril STS J, St. Jude Medical, Inc.) was inserted through the right jugular vein under X-ray fluoroscopy (BV Pulsera, Koninklijke Philips N.V.), and the tip was implanted in the right ventricular wall. Pacing was started at 244-251 beats/min on postoperative day 1. Dogs with ejection fraction (EF) decreasing to 30-50% at 4 weeks after pacemaker activation were considered to have heart failure and subjected to analysis.
Echocardiography was performed using a general-purpose ultrasound imaging system (Vivid S6, GE Medical Systems). The left ventricular end-diastolic diameter (LVIDd), left ventricular end-systolic diameter (LVIDs), ejection fraction (EF), and left ventricular internal diameter shortening (% FS) were measured in M-mode by placing a sector probe (10 MHz) on the chest.
Dogs were anesthetized intravenously with 14.5 to 22.3 mg/kg of secobarbital sodium (Injectable Ionar sodium (0.2), Nichi-Iko Co., Ltd.), followed by subcutaneous administration of 0.2 mg/kg of meloxicam (Metacam 0.5% injection, Boehringer Ingelheim Animal Health Japan Co.). A tracheal tube was inserted into the airway and connected to an Acoma animal ventilator (PRO-45Va, Acoma Medical Industry Co., Ltd.). The ventilator was set at a respiratory rate of 14-18 strokes/min and a tidal volume of 10-20 mL/kg/stroke, and respiration was controlled by an Acoma animal anesthesia machine (NS-5000A, Acoma Medical Industry Co., Ltd.) using a gas mixture (FiO2=0.3-1.0). The exhaled CO2 partial pressure was monitored using an exhaled carbon dioxide monitor (OLG-2800, Nihon Kohden Corporation). The animals were fixed in the dorsal position and the thighs and neck were shom. Anesthesia was maintained by continuous intravenous infusion of sodium secobarbital (5 mg/kg/hr) through the radial cutaneous vein using a Telfusion syringe pump (STC-523, Terumo Corporation). A Swan-Ganz catheter was inserted through the left femoral vein. A catheter for coronary angiography was inserted through the left femoral artery. A 5F sheath for arterial blood sampling was placed in the right femoral artery. A catheter for PV-loop analysis was inserted from the left internal carotid artery. An 8F occlusion balloon was placed from the right femoral vein for occlusion testing. In addition, KUS121 was administered from the left common jugular vein.
Beagle dog models of heart failure were prepared by rapid ventricular pacing. Cardiac function was assessed by echocardiography before KUS121 administration and after continuous infusion at 40 mg/h. KUS121 increased LVEF, even if it was based on either of the Teichholz method and the modified-Simpson's method, and increased % FS (FIG. 18). Changes in heart rate, systolic blood pressure, diastolic blood pressure, left ventricular ejection fraction, mean pulmonary artery pressure, pulmonary capillary wedge pressure, left ventricular end-diastolic pressure, and adjusted dp/dt are shown in FIGS. 19 to 21. […]

mouse models of HFpEF = experiment: Mouse models of HFpEF (high-fat diet + L-NAME), acute effect; assay type: in vivo; conditions: high-fat diet+L-NAME group
Experimental: Mouse models of HFpEF were prepared by high-fat diet and administration of L-NG-nitroarginine methyl ester (L-NAME) to test the effect of KUS121 on HFpEF. ICR mice were fed with normal diet and ultrapure water or high-fat diet and 0.5 g/L of L-NAME for 5 weeks.
Then, acute effect of KUS121 on HFpEF was tested. ICR mice fed with normal diet or high-fat diet+0.5 g/L of L-NAME were injected intraperitonially with 50 mg/kg of KUS121 and cardiac function was assessed by echocardiography before and 10 minutes after the injection. No difference in echocardiography was observed between the normal diet group and the high-fat diet+L-NAME group before injection of 5% glucose or KUS121 (FIG. 26). EF was not changed after […] in the control group and the high-fat diet+L-NAME group (FIG. 26, left and middle), but was increased after KUS121 injection in the high-fat diet+L-NAME group (FIG. 26, right).
Diastolic function was also tested. Global longitudinal strain (GLS), E/A, and E/E′ were assessed for evaluating cardiac diastolic function. Mice from the high-fat diet+L-NAME group had diastolic dysfunction as indicated by high levels of GLS, E/A, and E/E′ before KUS121 administration, the degree of which varied among the individual animals (FIG. 27).
To assess exercise tolerance, treadmill test (TMT) was performed.

[2] = echocardiography, before vs after continuous infusion at 40 mg/h
[3] = infusion per FIG. 17 protocol, cardiac catheterization
[4] = 50 mg/kg i.p., before and after administration

SMILES: Cc1cc(F)ccc1-c1ccc(/N=N/c2cc(S(=O)(=O)O)c3ccccc3c2N)cn1 [KUS121, 4-amino-3-[6-(4-fluoro-2-methylphenyl)pyridine-3-ylazo]naphthalene-1-sulfonic acid sodium salt]
- liver and kidney functions ([1]; blood samples collected during acute phase): remained normal
- % FS (fractional shortening in left ventricle) [1, 2]: increased
- LVEF based on the Teichholz method [1, 2]: increased
- LVEF based on the modified-Simpson's method [1, 2]: increased
- heart rate ([1]; infusion per FIG. 17 protocol): without affecting
- left ventricular diastolic function ([1]; infusion per FIG. 17 protocol): improved
- left ventricular systolic function ([1]; infusion per FIG. 17 protocol): improved
- systolic blood pressure ([1]; infusion per FIG. 17 protocol): without affecting
- pulmonary artery pressure [1, 3]: lowered
- pulmonary capillary wedge pressure [1, 3]: lowered
- E/A (mouse models of HFpEF; [4]): improved
- E/E′ (mouse models of HFpEF; [4]): improved
- Global longitudinal strain (GLS) (mouse models of HFpEF; [4]): improved
- EF (left ventricular ejection fraction) (mouse models of HFpEF; 50 mg/kg i.p., echocardiography before and 10 minutes after injection): increased
- blood pressure (mouse models of HFpEF; before and after 50 mg/kg): lowered the blood pressure
- exercise tolerance (distance traveled in treadmill test) (mouse models of HFpEF; before and after 50 mg/kg): improved the exercise tolerance
- heart rate (mouse models of HFpEF; before and after 50 mg/kg): slightly lowered the heart rate
